Source: US8524691B2, “Phosphonated rifamycins and uses thereof for the prevention and treatment of bone and joint infections” (The Medicines Company, priority 2008, dated 2013)
Values after ≈ are worked out from the molar mass of the structure shown. Read-outs that look alike come from different tables or passages of the source.

Columns and labels:
Assay type in all cases: cell-based
[1] = test system: S. aureus ATCC 29213; assay: Antibacterial susceptibility (MIC), NCCLS broth microdilution
Experimental: (§1) Susceptibility of S. aureus strains to the known antibiotics and synthesized compounds was determined by following the guidelines set by NCCLS (M26-A). Compounds were diluted two-fold serially in DMSO and transferred to cation-adjusted Mueller Hinton broth (CAMHB; Becton Dickinson). 50 μL of compounds diluted in CAMHB was mixed with 100 μL of bacteria diluted in CAMHB in 96-well microtiter plates. The final concentration of micro-organisms in the assay was 5×10^5c.f.u. per mL and the final concentration of DMSO in the assay was 1.25%. Assays were set up in duplicate and incubated at 37° C. for 18 h. The lowest concentration of compound that inhibited visible growth was reported as the minimum inhibitory concentration (MIC).

[2] = test system: S. aureus ATCC 13709^A, Novobiocin and Rifampicin resistant variant; assay: as above
Experimental: as §1

[3] = test system: S. aureus ATCC 13709; assay: microbe, parasite or virus in culture; conditions: for Antibacterial activity (in words, from Table 1): S. aureus MIC
Experimental: as §1

[4] = test system: S. aureus ATCC 13709; assay: microbe, parasite or virus in culture; conditions: for Serum dependence of antibacterial activity (in words): MIC with versus without serum
Experimental: as §1
Susceptibility testing experiments were also carried out in the presence of serum. These experiments were carried out similar to the susceptibility testing with the following modifications. 75 μL of compounds diluted in CAMHB was mixed with 75 μL of bacteria diluted in 100% serum from any given source (commercial pooled mouse serum (MS) and human serum (HS), Equitech-Bio Inc.) or diluted in 8% purified human serum albumin (HSA) (Calbiochem). The final concentration of animal serum in the assay was 50% and the final concentration of purified human serum albumin in the assay was 4%; the concentrations of all other components were identical to those described for susceptibility testing.

SMILES | Minimum inhibitory concentration, S. aureus ATCC 29213 [1] [µg/mL] | Minimum inhibitory concentration, S. aureus ATCC 13709^A [2] [µg/mL] | Minimum inhibitory concentration, S. aureus ATCC 13709 [3] [µg/mL] | Antibacterial activity (in words, from Table 1) [3] | Minimum inhibitory concentration, ATCC 13709 + 50% Human Serum [4] [µg/mL] | Minimum inhibitory concentration, ATCC 13709 + 50% Mouse Serum [4] [µg/mL] | Minimum inhibitory concentration, ATCC 13709 + 50% Rat Serum [4] [µg/mL] | Minimum inhibitory concentration, S. aureus ATCC 29213 ([1]; CAMHB, 37° C., 18 h) [µg/mL] | Minimum inhibitory concentration, S. aureus ATCC 13709 ([3]; CAMHB, 37° C., 18 h) [µg/mL] | Minimum inhibitory concentration, ATCC 13709 + 50% Human Serum ([4]; 50% Human Serum) [µg/mL] | Minimum inhibitory concentration, ATCC 13709 + 50% Mouse Serum ([4]; 50% Mouse Serum) [µg/mL] | Minimum inhibitory concentration, ATCC 13709 + 50% Rat Serum ([4]; 50% Rat Serum) [µg/mL] | Serum dependence of antibacterial activity (in words) [4]
CCC(=O)Oc1ccc(P(=O)(O)CP(=O)(O)O)cc1C(C)(C)CC(=O)N[C@@H](Cc1ccccc1)C(=O)N(C)CC(=O)O[C@@H]1[C@@H](C)[C@@H](O)[C@@H](C)[C@H](OC(C)=O)[C@H](C)[C@@H](OC)/C=C/O[C@@]2(C)Oc3c(C)c(O)c4c(c3C2=O)C2=NC3(CCN(CC(C)C)CC3)NC2=C(NC(=O)/C(C)=C\C=C\[C@@H]1C)C4=O.CCN(CC)CC.CCN(CC)CC [Compound 128] | >128 | >128 | >128 | near complete loss of activity | >128 | >128 | >128 | – | – | – | – | – | –
CCC(=O)Oc1cc(C)c(OCCCCC(P(=O)(O)O)P(=O)(O)O)c(C)c1CCC(=O)N[C@@H](Cc1ccccc1)C(=O)N(C)CC(=O)O[C@@H]1[C@@H](C)[C@@H](O)[C@@H](C)[C@H](OC(C)=O)[C@H](C)[C@@H](OC)/C=C/O[C@@]2(C)Oc3c(C)c(O)c4c(c3C2=O)C2=NC3(CCN(CC(C)C)CC3)NC2=C(NC(=O)/C(C)=C\C=C\[C@@H]1C)C4=O.N.N [Compound 138] | >128 | >128 | >128 | near complete loss of activity | >128 | >128 | >128 | – | – | – | – | – | –
CO[C@H]1/C=C/O[C@@]2(C)Oc3c(C)c(O)c4c(c3C2=O)C2=NC3(CCN(CC(C)C)CC3)NC2=C(NC(=O)/C(C)=C\C=C\[C@H](C)[C@H](OC(=O)CN(C)C(=O)NC(P(=O)(O)O)P(=O)(O)O)[C@@H](C)[C@@H](O)[C@@H](C)[C@H](OC(C)=O)[C@@H]1C)C4=O [Compound 140] | – | >128 | – | – | – | – | – | 16 (≈ 14.1 µM) | 16 (≈ 14.1 µM) | 128 | 32 | 4 | weak antibacterial activity does not show a serum dependence
CCN(CC)CC.CO[C@H]1/C=C/O[C@@]2(C)Oc3c(C)c(O)c4c(c3C2=O)C2=NC3(CCN(CC(C)C)CC3)NC2=C(NC(=O)/C(C)=C\C=C\[C@H](C)[C@H](OC(=O)CNC(=O)Nc2ccc(CC(P(=O)(O)O)P(=O)(O)O)cc2)[C@@H](C)[C@@H](O)[C@@H](C)[C@H](OC(C)=O)[C@@H]1C)C4=O [Compound 142a] | – | >128 | – | – | – | – | – | 16 | 16 | 128 | 16 | 2 | weak antibacterial activity does not show a serum dependence
CCN(CC)CC.CO[C@H]1/C=C/O[C@@]2(C)Oc3c(C)c(O)c4c(c3C2=O)C2=NC3(CCN(CC(C)C)CC3)NC2=C(NC(=O)/C(C)=C\C=C\[C@H](C)[C@H](OC(=O)CN(C)CC(=O)NC(P(=O)(O)O)P(=O)(O)O)[C@@H](C)[C@@H](O)[C@@H](C)[C@H](OC(C)=O)[C@@H]1C)C4=O [Compound 147] | – | >128 | – | near complete loss of activity | – | – | – | 128 | 128 | 16 | 2 | 32 | –
